Patent publication US11708338B2, “Substituted phenyl sulfonyl phenyl triazole thiones and uses thereof” (Neuropore Therapies, Inc., priority 2017, dated 2023)

Experiments:
Assay type in all cases: in vivo, mouse
[1] = test system: total alpha-synuclein (ASYN); test: IHC quantification of total alpha-synuclein deposits in brain, 1 month administration study; settings: for reduction of total alpha-synuclein level in cortex as compared to vehicle control: L61 ASYN transgenic mice, FIG. 7A
Procedure: Multiple in vivo administration studies of Compound 1 were carried out in the Line 61 (L61) mThy1-alpha-synuclein transgenic mouse model of Parkinson's disease (PD). The mThy1-alpha-synuclein transgenic mouse model overexpresses wild-type human ASYN under the Thy-1 promoter studies (commonly referred to as Line 61 transgenic mice; Rockenstein et al., 2002). This transgenic mouse develops extensive accumulation of alpha-synuclein (ASYN) in areas relevant to PD (Rockenstein et al., 2002; Chesselet et al., 2012; Games et al., 2013), neurodegeneration including dopaminergic neurodegeneration, reduced dopamine (DA) and TH loss in the striatum (Masliah et al., 2000; Lam et al., 2011), and motor deficits (Fleming et al., 2004). Male transgenic and non-transgenic littermates (3-3.5 mo) were used for all in vivo studies presented here.
(§1) Alpha-synuclein (ASYN) is a neuronal protein whose dysregulation has been implicated in the pathogenesis of PD. The effects of Compound 1 on alpha-synuclein aggregation were assessed in both L61 ASYN transgenic and non-transgenic mice in a 1 month administration study. L61 ASYN transgenic mice (36 total mice, n=8-11 mice per treatment group) were injected (i.p.) with 1, 5, or 10 mg/kg of Compound 1 or a vehicle control (5% DMSO+20% Cremphor EL+0.9% normal saline) per day for 1 month. Non-transgenic mice (18 total mice, n=8-11 mice per treatment group) were used as a control and were injected daily (i.p.) with 10 mg/kg of Compound 1 or a vehicle control (5% DMSO+20% Cremphor EL+0.9% normal saline) per day for 1 month. At the end of one month, the mice were sacrificed, and immunohistochemical (IHC) detection of total alpha-synuclein deposits, insoluble alpha-synuclein deposits (PK+resistant), microtubule-associated protein 1A/1B-light chain 3 (LC3), and monomeric alpha-synuclein levels were assessed in the harvested brain tissues.
The quantification and IHC staining of total alpha-synuclein were performed using known techniques (Rockenstein et al., J Neurosci Res. 2002, 68(5):568-78; Tanji et al., Acta Neuropathol. 2010, 120, 145-154; Nuber et al., Brain. 2013, February; 136(Pt 2):412-32).

[2] = test system: monomeric ASYN; test: ProteinSimple western biochemical evaluation of monomeric ASYN in cytosolic fraction of brain homogenates; settings: L61 ASYN transgenic mice, 1, 5 or 10 mg/kg per day i.p., 1 month
Procedure: Multiple in vivo administration studies of Compound 1 were carried out in the Line 61 (L61) mThy1-alpha-synuclein transgenic mouse model of Parkinson's disease (PD). The mThy1-alpha-synuclein transgenic mouse model overexpresses wild-type human ASYN under the Thy-1 promoter studies (commonly referred to as Line 61 transgenic mice; Rockenstein et al., 2002). […]
Alpha-synuclein (ASYN) is a neuronal protein whose dysregulation has been implicated in the pathogenesis of PD. The effects of Compound 1 on alpha-synuclein aggregation were assessed in both L61 ASYN transgenic and non-transgenic mice in a 1 month administration study. […] At the end of one month, the mice were sacrificed, and immunohistochemical (IHC) detection of total alpha-synuclein deposits, insoluble alpha-synuclein deposits (PK+resistant), microtubule-associated protein 1A/1B-light chain 3 (LC3), and monomeric alpha-synuclein levels were assessed in the harvested brain tissues.
Biochemical evaluations were conducted using a ProteinSimple© western biochemical evaluation. Briefly, samples were mixed with pre-calculated volumes of 0.1×Sample Buffer and 5×Fluorescent Master Mix to make a final sample concentration of 0.4 mg/mL in 10 μL solution for signal optimization and evaporation reduction. […]

[3] = test system: microtubule-associated protein 1A/1B-light chain 3 (LC3); test: LC3 immunolabeling (IHC) in brain, 1 month administration study; settings: L61 ASYN transgenic mice, 1, 5 or 10 mg/kg per day i.p.
Procedure: as §1

[4] = test system: dopaminergic (DAT) transporter; test: DAT IHC immunolabeling in striatum, striatal-to-reference ratio; settings: L61 ASYN transgenic mice, 3 months
Procedure: The harvested brain tissues were drop fixed using 4% PFA and sectioned on a vibratome, and representative sections corresponding to the striatum and cerebellum were assessed for DAT with IHC staining.
Immunolabeling studies of DAT were conducted using a monoclonal antibody (1:500; MAB369; Millipore, Temecula, Calif.) and a biotinylated secondary antibody (1:100; BA4000, Vector Labs) and analysis was performed on blindcoded sections from Line 61 transgenic and non-transgenic mice. Slides were digitized using a high resolution automated Nanozoomer slide scanner (Hamamatsu Corp.). Digitized images were analyzed using Halo (Indica Labs) image analysis software package by placing an ROI frame within the dorsal striatum and another within a separate reference brain region (for normalization of DAT signal). A thresholding algorithm was defined and then applied equally to all images to determine the average optical density of DAT immunolabeling across each ROI The results of the analysis were then exported for graphing and statistical analysis and the striatal DAT:cortical (reference region) DAT optical densities ratio was calculated for each subject.
Quantification of DAT density was carried out by calculating the immunofluorescence in striatal sections against that in cerebellum sections to derive a striatal-to-reference ratio.

[5] = test system: Translocator Protein (18 kDa) (TSPO); test: TSPO immunofluorescence in cortex of L41 APP transgenic mice; settings: 5 mg/kg daily i.p.
Procedure: Neuroinflammation is associated with increased expression of the 18-kDa translocator protein (TSPO), which is present on the mitochondria of activated microglia, astroglia and macrophages (Crawshaw and Robertson 2017). The effects of Compound 1 on TSPO expression were assessed in both L41 APP transgenic and non-transgenic mice in a 1 month administration study. L41 APP transgenic mice (36 total mice, n=8-11 mice per treatment group) were injected (i.p.) daily with 5 mg/kg of Compound 1 or a vehicle control (5% DMSO+20% Cremphor EL+0.9% normal saline) for […]. Non-transgenic mice (18 total mice, n=8-11 mice per treatment group) were used as a control and were injected daily (i.p.) with 10 mg/kg of Compound 1 (data not shown) or a vehicle control (5% DMSO+20% Cremphor EL+0.9% normal saline) for 1 month. After 30 days, the mice were sacrificed, and immunofluoresence (IF) detection of TSPO were assessed in the harvested brain tissues.
The harvested brain tissues were drop fixed using 4% PFA and sectioned on a vibratome, and representative sections corresponding to the neuropil of cortex were assessed for TSPO with standard immunofluorescence (IF) staining.

[6] = L61 ASYN transgenic mice, 1, 5 or 10 mg/kg per day i.p.

## O=S(=O)(c1ccc(-n2cn[nH]c2=S)cc1)c1ccc(Cl)c(C(F)(F)F)c1 [Compound 1, 4-(4-((4-chloro-3-(trifluoromethyl)phenyl)sulfonyl)phenyl)-2,4-dihydro-3H-1,2,4-triazole-3-thione]
[1]; 1 mg/kg per day i.p.
  reduction of total alpha-synuclein level in cortex as compared to vehicle control: 13%
[1]; 5 mg/kg per day i.p.
  reduction of total alpha-synuclein level in cortex as compared to vehicle control: 32%
[1]; 10 mg/kg per day i.p.
  reduction of total alpha-synuclein level in cortex as compared to vehicle control: 38%
[1]; [6]
  total ASYN in the neuropil of cortex vs vehicle control: reduced
  total ASYN in the neuropil of hippocampus vs vehicle control: reduced
  total ASYN in the neuropil of striatum vs vehicle control: reduced
[2]
  cortical levels of monomeric ASYN in cytosolic fraction of brain homogenates: reduced
  hippocampal levels of monomeric ASYN in cytosolic fraction of brain homogenates: reduced
[3]
  levels of LC3 immunolabeling in cortex: increased
  levels of LC3 immunolabeling in hippocampus (increase): not
  levels of LC3 immunolabeling in striatum: increased
[4]; 5 mg/kg or 10 mg/kg daily
  striatal levels of DAT, staining intensity in representative images (FIG. 18) vs vehicle-treated L61 mice: restoring striatal levels of DAT
[4]; 10 mg/kg dose
  DAT striatal-to-reference ratio, quantification (FIG. 19): reduces the GFAP levels in a statistically significant manner
[5]
  cortical TSPO level vs vehicle-treated Line 41 mice, quantification (FIG. 20): reduces the TSPO level in a statistically significant manner
